Test results as given in ChEMBL document CHEMBL5338753, “Stapled Peptides as Direct Inhibitors of Nrf2-sMAF Transcription Factors” (J Med Chem, 2023).
The source made the active and inactive calls. The rule behind the calls is not given here. Positions of bridges follow the written chain, without caps; N, C: chain ends. Non-standard residues stand in square brackets, D forms with d. Residues, ends and D or L forms follow the SMILES beside them. R5 = C=CCCC[C@@](C)(N)C(=O)O

Assays:
A549 [1] = test: Synergistic antiproliferative activity against human A549 cells assessed as combination index at 25 uM incubated for 72 hrs in presence of 12 uM cisplatin by Chou-Talalay method; assay type: functional
A549 [2] = test: Downregulation of TrxR1 protein expression in human A549 cells at 25 to 50 uM incubated for 72 hrs by Western blot analysis; assay type: functional, cell-based; conditions: dose 25-50 µM
A549 [3] = test: Downregulation of HMOX1 mRNA level in human A549 cells at 50 uM incubated for 72 hrs by qPCR assay; assay type: functional, cell-based
A549 [4] = test: Synergistic antiproliferative activity against human A549 cells assessed as cell death at 50 uM incubated for 72 hrs in presence of 6 uM cisplatin by MTT assay (reference value: 46%); assay type: functional
A549 [5] = test: Downregulation of NQO2 mRNA level in human A549 cells at 50 uM incubated for 72 hrs by qPCR assay; assay type: functional, cell-based
A549 [6] = test: Downregulation of TXN mRNA level in human A549 cells at 50 uM incubated for 72 hrs by qPCR assay; assay type: functional, cell-based
A549 [7] = test: Synergistic antiproliferative activity against human A549 cells assessed as combination index at 12.5 uM incubated for 72 hrs in presence of 12 uM cisplatin by Chou-Talalay method; assay type: functional
A549 [8] = test: Antiproliferative activity against human A549 cells assessed as cell death at 100 uM incubated for 72 hrs by MTT assay relative to control; assay type: functional
A549 [9] = test: Downregulation of GCLC mRNA level in human A549 cells at 50 uM incubated for 72 hrs by qPCR assay; assay type: functional, cell-based
A549 [10] = test: Synergistic antiproliferative activity against human A549 cells assessed as combination index at 50 uM incubated for 72 hrs in presence of 12 uM cisplatin by Chou-Talalay method; assay type: functional
A549 [11] = test: Synergistic antiproliferative activity against human A549 cells assessed as cell death at 1.563 uM incubated for 72 hrs in presence of 6 uM cisplatin by MTT assay (reference value: 46%); assay type: functional
A549 [12] = test: Antiproliferative activity against human A549 cells assessed as cell death at 3.125 uM incubated for 72 hrs by MTT assay relative to control; assay type: functional
A549 [13] = test: Synergistic antiproliferative activity against human A549 cells assessed as reduction in cell growth at 50 uM incubated for 3 days in presence of 6 uM cisplatin and measured every 2 hrs by IncuCyte live-cell imaging assay; assay type: functional, cell-based; conditions: time 3.0 day
A549 [14] = test: Synergistic antiproliferative activity against human A549 cells assessed as combination index at 12.5 uM incubated for 72 hrs in presence of 6 uM cisplatin by Chou-Talalay method; assay type: functional
A549 [15] = test: Synergistic antiproliferative activity against human A549 cells assessed as cell death at 12.5 uM incubated for 72 hrs in presence of 6 uM cisplatin by MTT assay (reference value: 46%); assay type: functional
A549 [16] = test: Synergistic antiproliferative activity against human A549 cells assessed as cell death at 100 uM incubated for 72 hrs in presence of 12 uM cisplatin by MTT assay (reference value: 66%); assay type: functional
A549 [17] = test: Synergistic antiproliferative activity against human A549 cells assessed as cell death at 50 uM incubated for 72 hrs in presence of 12 uM cisplatin by MTT assay (reference value: 66%); assay type: functional
[18] = molecular target: T1, Nuclear factor erythroid 2-related factor 2 (Homo sapiens) (UniProt Q16236); test: Inhibition of Nrf2 transcriptional activity in human A549 cells assessed as reduction in glutathione level at 50 to 100 uM incubated for 24 hrs by GSH-Glo glutathione assay; assay type: cell-based; conditions: dose 50-100 µM
T1 sequence (whole entry): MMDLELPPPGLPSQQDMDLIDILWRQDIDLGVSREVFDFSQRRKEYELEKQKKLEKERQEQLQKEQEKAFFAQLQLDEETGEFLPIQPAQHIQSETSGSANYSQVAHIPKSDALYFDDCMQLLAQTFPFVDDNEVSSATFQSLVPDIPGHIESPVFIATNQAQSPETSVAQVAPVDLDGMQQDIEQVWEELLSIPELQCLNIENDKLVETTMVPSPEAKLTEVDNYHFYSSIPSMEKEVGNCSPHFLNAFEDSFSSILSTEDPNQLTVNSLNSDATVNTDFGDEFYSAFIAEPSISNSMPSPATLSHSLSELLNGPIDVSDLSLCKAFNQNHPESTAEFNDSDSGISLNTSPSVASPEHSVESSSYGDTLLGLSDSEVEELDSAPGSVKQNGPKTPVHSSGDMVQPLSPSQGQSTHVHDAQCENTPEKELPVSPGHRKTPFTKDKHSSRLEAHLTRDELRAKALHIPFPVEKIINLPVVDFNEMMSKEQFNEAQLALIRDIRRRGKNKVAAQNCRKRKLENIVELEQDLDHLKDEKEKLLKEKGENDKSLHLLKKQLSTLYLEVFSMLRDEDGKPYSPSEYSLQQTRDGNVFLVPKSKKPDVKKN

For `CC[C@H](C)[C@H](NC(C)=O)C(=O)N[C@H](C(=O)N[C@@H](CCC(=O)O)C(=O)N[C@@H](CC(C)C)C(=O)N[C@@H](CCC(=O)O)C(=O)N[C@]1(C)CCC/C=C\CCC[C@](C)(C(=O)N[C@@H](CC(C)C)C(=O)N[C@@H](CCCCN)C(=O)N[C@@H](CC(=O)O)C(=O)N[C@@H](CCC(=O)O)C(=O)N[C@@H](CCCCN)C(=O)N[C@@H](CCC(=O)O)C(N)=O)NC(=O)[C@H](CC(=O)O)NC(=O)[C@H](CC(C)C)NC(=O)[C@H](CC(=O)O)NC1=O)C(C)C` (Ac-IVELE[R5]DLD[R5]LKDEKE-NH2; staple (Z) 6-10), the CI (A549 [1]) was 0.35, the Activity (A549 [2]) was “Active” and the Activity (A549 [3]) was “Active”. For the same compound, the Activity (A549 [4]) was 74%, the Activity (A549 [5]) was “Active” and the Activity (A549 [6]) was “Active”. For the same compound, the CI (A549 [7]) was 0.51, the Activity (A549 [8]) was 37% and the Activity (A549 [9]) was “Active”. It also gave a CI (A549 [10]) of 0.19, an Activity (A549 [11]) of 50% and an Activity (A549 [12]) of 12%. For the same compound, the Activity (A549 [13]) was “Active”, the CI (A549 [14]) was 0.57 and the Activity (A549 [15]) was 64%. The Activity (A549 [16]) was 100%, the Activity (A549 [17]) was 93% and the inhibition [18] was “Active”.
